Experimental data reported in patent publication US9700638B2, “Near infrared label and methods of use thereof” (priority 2013, dated 2017).
Read-outs that look alike come from different tables or passages of the source.

Tests used:
Candida albicans = experiment: Imaging of fungal infection in mice kidneys by whole-body fluorescence imaging; format: in vivo
Experimental: Mice were infected via intravenous inoculation with 5*10^5 CFU of wild type Candida albicans and an infection that occurs most prominently in the kidneys. After 48 hours post infection, a fixed concentration of 0.12 ug/mL of CSF-DDAO is added via tail vein injection at 0, 2, 4 and 8 hours to assess the optimal time for visualization of the infection. At each time point, the mice were imaged in a non-invasive whole-body animal imaging system to detect fluorescence energy. Animals infected with Candida albicans show proliferation of the fungal infection in the kidneys after 48 hours. […] Maximum labeling occurred at 8 hours. […] At the same time no signal was detected in uninfected and/or untreated organs.

[1] = Fluorescence spectra, relative brightness and quantum yield in various solvents; format: physicochemical; set-up: brightness: unit not given here; conditions: for QY (50% MeOH), quantum yield / RB (50% MeOH), relative brightness / QY (MeOH), quantum yield / RB (MeOH), relative brightness / QY (H20), quantum yield / RB (H2O), relative brightness: 1 μM; for increase of light emission in 50% methanol compared to water: 50% methanol vs water; for increase of emission in 100% methanol compared to 50% methanol: 100% methanol vs 50% methanol; for QY (H20), quantum yield / RB (H2O), relative brightness: H2O
Experimental: (§1) The molar extinction of 7-aminoDDAO (55 000 M-1 cm-1) was determined by the attachment of reference chromophores with known molar absorptivity (Table 1). Light absorption spectra of the labeled caspofungin and posaconazole derivatives were close to superposition of those for the 7-(4-aminobutyl)amino-DDAO and the corresponding drugs, which is illustrated in FIG. 4 on the example of posaconazole derivative. […] Thus, excitation and emission maxima for DDAO were 653 nm and 660 nm correspondingly, while for 7-(4-aminobutyl)amino-DDAO they shifted to 671 nm and 679 nm correspondingly. […] Remarkably, the shape of the excitation spectrum curve for ionized form of DDAO was the same in 50% and 100% methanol.
However, posaconazole derivative behaved differently. […] The suppression of the fluorophore light emission in posaconazole derivative is likely due to the presence of extended light-absorbing moiety that can stack to the fluorophore, causing contact quenching (FIG. 7). […] in fluorescence is expected upon interaction of the labeled drug with its cellular target, whereby stacking interactions of the fluorophore with the drug moiety have to be destroyed (FIG. 7B). This beneficial “signaling” effect is expected to greatly increase the contrast of imaging by minimizing the background signal of non-bound compound, which remains “dark”.
Table 2 illustrates light emission properties of DDAO-based diagnostic probes and reference compounds, and presents the data on quantum yield and brightness for 7-aminoDDAO compound at various conditions. These parameters were determined using a reference fluorophore Cy5.5, (which has the excitation and emission maxima nearly identical to those for 7-aminoDDAO) and published data for original DDAO fluorophore. […] This was perhaps due to higher light absorptivity and higher quantum yield of the amino-derivative. The difference in brightness further increased in 50% methanol (21 000 and 9000 correspondingly).

[2] = Light absorption / molar absorptivity of DDAO and 7-aminoDDAO derivatives; format: physicochemical; conditions: for light absorption maximum: FIG. 4, 50% MeOH
Experimental: as §1

[3] = reference chromophores with known molar absorptivity; cited from earlier work
[4] = Chemical and photochemical stability of the fluorophore; format: physicochemical
[5] = listed as 7-(4-aminobutyl)amino-DDAO

Row | Compound | QY (50% MeOH), quantum yield [1] | RB (50% MeOH), relative brightness [1] | increase of light emission in 50% methanol compared to water [1] | QY (MeOH), quantum yield ([1]; 100% MeOH) | RB (MeOH), relative brightness ([1]; 100% MeOH) | increase of emission in 100% methanol compared to 50% methanol [1] | QY (H20), quantum yield [1] | RB (H2O), relative brightness [1] | ε [2] | Molar absorption for attached compounds [3] | brightness [1] | pH dependence of the fluorophore [1] | molar absorbance [2] | light absorption maximum [2] | other results
1 | DDAO—NH—(CH2)4—NCS-Caspofungin [DDAO Casp] | 0.26 | 13,800 | 2 fold | 0.42 | 22,000 | 1.3 fold | 0.11 | 6,000 | 53,000 M^−1cm^−1 |  |  |  |  |  | fluorescent signal of the infected organ (kidney) (Candida albicans; C. albicans infected mice kidney, FIG. 8): bright fluorescent signal; labeling of cells in the target organs over time (Candida albicans; infected mice, whole body imaging at 0, 2, 4 and 8 hours): progressive labeling of cells in the target organs over time; time of maximum labeling after probe injection (Candida albicans; mice 48 h post i.v. infection with C. albicans, 0.12 ug/mL via tail vein, whole body imaging): 8 h; accumulation in the kidneys in the absence of infection (Candida albicans; uninfected mice): did not accumulate in the kidneys
2 | Cc1cc(C)n2c1C=C1C=CC(CCC(=O)O)=[N+]1[B-]2(F)F [BODIPY-FL] |  |  |  |  |  |  |  |  |  | 82,000 M^−1cm^−1 |  |  |  |  | 
3 | CC1(C)C2=C(Cl)C(=O)C(Cl)=CC2=Nc2ccc(NCCCCN)cc21 [DDAO NH2, DDAO—NH—(CH2)4—NH2] | 0.40 | 21,000 | ca. 2.5 fold | 0.25 | 13,000 |  | 0.19 | 10,000 | 53,000 M^−1cm^−1 |  | 6,000 | pH-independent | 53,000 | 673 nm | chemical and photochemical stability [4]: chemically and photochemically stable; long-wavelength emission range [1]: 640-700 nm; RB (50% MeOH), relative brightness ([1]; listed as 7-aminoDDAO): 21 000; emission maximum in 100% MeOH ([1]; 100% MeOH): 670 nm; excitation maximum in 100% MeOH ([1]; 100% MeOH): 620 nm; drop of light emission intensity in 100% MeOH ([1]; 100% MeOH vs 50% methanol): 1.7 fold; RB (MeOH), relative brightness ([1]; 100% MeOH, listed as 7-aminoDDAO): 13 000; RB (H2O), relative brightness ([1]; listed as 7-aminoDDAO): 10 000; emission maximum [1, 5]: 679 nm; excitation maximum [1, 5]: 671 nm; emission maximum ([1]; listed as 7-aminoDDAO): 680 nm; emission maximum ([1]; listed as 7-aminoDDAP): 680 nm; excitation maximum ([1]; listed as 7-aminoDDAP): 670 nm; Calculated molar absorption for DDAO residue ([2]; attached compound BODIPY-FL): 70,000 M^−1cm^−1; Calculated molar absorption for DDAO residue ([2]; attached compound DNP): 32,000 M^−1cm^−1; Calculated molar absorption for DDAO residue ([2]; attached compound Posaconazole): 59,000 M^−1cm^−1; Calculated molar absorption for DDAO residue, Average ([2]; average over three attached chromophores): 53,000 M^−1cm^−1; molar extinction ([2]; determined by attachment of reference chromophores): 55 000 M-1 cm-1
4 | CC1(C)C2=C(Cl)C(=O)C(Cl)=CC2=Nc2ccc(O)cc21 [DDAO, 7-hydroxy-9H-(1,3-dichloro-9,9-dimethylacridin-2-one), reference compound] | 0.19 | 9000 |  | 0.25 | 12 000 | 1.3 fold | 0.125 | 6 000 | 48,000 M^−1cm^−1 |  | 3,600 | pH-dependent | 48,000 | 653 nm | emission maximum [1]: 660 nm; excitation maximum [1]: 653 nm; RB (50% MeOH), relative brightness ([1]; listed as DDAO (pH 9.0)): 9,000; RB (MeOH), relative brightness ([1]; 100% MeOH, listed as DDAO (pH 9.0)): 12,000; RB (H2O), relative brightness ([1]; listed as DDAO (pH 9.0)): 6,000
5 | CC[C@@H]([C@H](C)O)n1ncn(-c2ccc(N3CCN(c4ccc(OC[C@@H]5CO[C@@](Cn6cncn6)(c6ccc(F)cc6F)C5)cc4)CC3)cc2)c1=O [Posaconazole] |  |  |  |  |  |  |  |  |  | 34,000 M^−1cm^−1 |  |  |  |  | 
